Results reported in US12653796B2, “Compounds for use (in particular RIPA-56) in the prevention and/or treatment of non-alcoholic fatty liver disease” (SORBONNE UNIVERSITE, priority 2019, dated 2026).

Columns and labels:
RIPK1 = test: ELISA of RIPK1 released in supernatant of L929 cells exposed to TNFα; format: cell-based, murine; conditions: 20 μM, 2 h, then TNFα (25 ng/mL) 6 h
Method: FIG. 12. […] Results are shown as mean±SEM of six replicates.
L929 cells (LGC Standards, Molsheim, France), were cultured in Dulbecco's modified Eagle's medium (DMEM) (ThermoFisher, Massachusetts, USA) supplemented with 10% fetal bovine serum (Eurobio, Courtaboeuf, France), penicillin (100 IU/ml), streptomycin (0.1 mg/ml), and L-glutamine (0.03%) (ThermoFisher). […] AML-12 (alpha mouse liver-12) hepatocytes (LGC Standards) were cultured in DMEM/F12 Medium (ThermoFisher) supplemented with 10% fetal bovine serum (Eurobio), 10 μg/ml insulin, 5.5 μg/ml transferrin, 5 ng/ml selenium and 40 ng/ml dexamethasone (Sigma, Missouri, USA). AML-12 hepatocytes were stimulated with insulin (#I0516, 10 nM; Sigma) for 15 minutes.
Protein concentrations of human RIPK1 (SEE640Hu; Could-Clone Corp., Texas, USA), human MLKL (SER645Hu; Could-Clone Corp.) and murine RIPK1 (CSB-EL019735MO; Cusabio, Texas, USA) were determined by an ELISA kit according to the manufacturer's instructions.

[1] = tested on: primary human steatotic hepatocytes; test: Fat depletion in primary human hepatocytes isolated from steatotic livers of patients with NAFLD; format: cell-based; conditions: 20 μM, 24 h
Method: FIG. 7. RIPA-56 treatment induces fat depletion in primary human hepatocytes. Primary human hepatocytes were isolated from steatotic human livers of patients with NAFLD (n=5) (A-C) or from non-steatotic human livers and incubated with free fatty acids to induce steatosis or without (W/O) (n=5) (D-G), and treated with RIPA-56 (20 μM) or DMSO (vehicle) for 24 h. (A, D) Representative Oil Red-O and DAPI images; (B, E) Quantification of Oil Red-O staining normalized for the number of DAPI-stained nuclei; (C, F) Quantification of intracellular triglycerides normalized to protein content; (G) mRNA levels of CPT1A, MTTP and APOB100 were assessed by RT-qPCR, and shown relative to DMSO-treated hepatocytes. Results are shown as mean±SEM; n.s., not significant; *p<0.05; **p<0.01; scale bars, 100 μm. […]
The liver fragment was initially perfused with a prewarmed (37° C.) calcium-free buffer supplemented with 5 mmol/L ethylene glycol tetra-acetic acid (Sigma) followed by perfusion with a prewarmed (37° C.) buffer containing 6 mmol/L calcium (CaCl2) and collagenase 0.05% ([…]) (Sigma). […] The count of viable cells was determined using trypan blue exclusion. […]
Intracellular lipids were stained by means of Oil Red-O (Sigma). […] Fluorescence images were viewed with IX83 Olympus microscope, acquired with Cell-Sens V1.6 and analyzed with FIJI software. […]

[2] = tested on: primary human hepatocytes; test: Fat depletion in primary human hepatocytes with free fatty acid-induced steatosis; format: cell-based; conditions: 20 μM, 24 h
Method: FIG. 7. RIPA-56 treatment induces fat depletion in primary human hepatocytes. Primary human hepatocytes were isolated from steatotic human livers of patients with NAFLD (n=5) (A-C) or from non-steatotic human livers and incubated with free fatty acids to induce steatosis or without (W/O) (n=5) (D-G), and treated with RIPA-56 (20 μM) or DMSO (vehicle) for 24 h. (A, D) Representative Oil Red-O and DAPI images; (B, E) Quantification of Oil Red-O staining normalized for the number of DAPI-stained nuclei; (C, F) Quantification of intracellular triglycerides normalized to protein content; (G) mRNA levels of CPT1A, MTTP and APOB100 were assessed by RT-qPCR, and shown relative to DMSO-treated hepatocytes. Results are shown as mean±SEM; n.s., not significant; *p<0.05; **p<0.01; scale bars, 100 μm. These findings are representative of five independent cell preparations.
FIG. 9. MLKL controls intrahepatic triglyceride content in hepatocytes. (A-D) Primary human hepatocytes were isolated from non-steatotic human livers and incubated with free fatty acids to induce steatosis, or without (W/O), and treated with necrosulfonamide (NSA) (20 μM) or DMSO (vehicle) for 24 h. (A) Representative Oil Red-O and DAPI images; (B) Quantification of Oil Red-O staining normalized for the number of DAPI-stained nuclei; (C) Quantification of intracellular triglycerides normalized to protein content. (D) mRNA levels of CPT1A, MTTP and APOB100 were assessed by RT-qPCR and shown relative to DMSO-treated hepatocytes; (E-H) AML-12 cells were knocked-out (KO) for MLKL and compared with control (CTL) cells, which underwent a similar CRISPR-Cas9 selection as KO cells; (E) Whole-cell lysates were extracted from CTL and MLKL-KO AML-12 cells and analyzed by Western blot using antibodies against MLKL, Tubulin and GAPDH; (F) Representative Oil Red-O and DAPI images; (G) Oil Red-O staining and (H) triglycerides quantification in fat-loaded cell lines. Results are shown as mean±SEM; n.s., not significant; *p<0.05; **p<0.01; ***p<0.001; scale bars, 100 μm. These experiments are representative of five independent cell preparations.
The liver fragment was initially perfused with a prewarmed (37° C.) calcium-free buffer supplemented with 5 mmol/L ethylene glycol tetra-acetic acid (Sigma) followed by perfusion with a prewarmed (37° C.) buffer containing 6 mmol/L calcium (CaCl2) and collagenase 0.05% ([…]) (Sigma). The liver fragment was then gently shaken to disperse liver cells in Hepatocyte Wash Medium (Life Technologies, Villebon-sur-Yvette, France). The resulting cell suspension was filtered through a gauze-lined funnel. Cells were then centrifuged at low speed. The supernatant, containing damaged or dead hepatocytes, non-parenchymal cells and debris were removed and pelleted hepatocytes were re-suspended in Hepatocyte Wash Medium. The count of viable cells was determined using trypan blue exclusion. Freshly isolated normal (steatosis <5%) or steatotic (>10%) hepatocytes were resuspended in Williams medium E (Life technologies) containing 10% fetal calf serum (Eurobio), penicillin (200 U/mL)-streptomycin (200 μg/mL), Fungizone (2.5 μg/mL) and insulin (0.1 U/mL) (Life Technologies). The cells were seeded in 12-, 24- and 96-well plates pre-coated with type I collagen at a density of 0.78×10^6, 0.4×10^6 and 0.5×10^5 viable cells/well, respectively, and incubated overnight at 37° C. in a 5% CO2 atmosphere. The medium was replaced with fresh complete hepatocyte medium supplemented with 1 μmol/L hydrocortisone hemisuccinate (Laboratoires SERB, Paris, France) and hepatocytes were maintained in this medium. To induce steatosis in normal hepatocytes, PHH were incubated with free fatty acid (FFA) mixtures of oleic acid and palmitic acid in a molar ratio 2:1 (500:250 μmol/L), respectively, and with 1% fatty-acid-free BSA for 48 hours.
Total RNA was purified from liver tissue using TRIzol reagent (ThermoFisher) and a RNeasy Mini kit (Qiagen, Courtaboeuf, France). […]

With `CCC(C)(C)C(=O)N(O)Cc1ccccc1` [RIPA-56, N-Benzyl-N-hydroxy-2,2-dimethylbutanamide] the “RIPK1 in the supernatant” value (RIPK1) was “undetectable”, the “intracellular lipid droplets (Oil Red-O)” value [1] was “marked decrease” and the intracellular triglyceride content [1] was “marked decrease”. The “intracellular lipid droplets (Oil Red-O)” value ([2]; FFA-induced steatosis) was “significant decrease”, the intracellular triglyceride content ([2]; FFA-induced steatosis) was “significant decrease” and the “CPT1A, APOB100 and MTTP expression (mRNA)” value ([2]; RT-qPCR) was “up-regulation”.
